Test results from publication PMC8097335, “A High‐Affinity Calmodulin‐Binding Site in the CyaA Toxin Translocation Domain is Essential for Invasion of Eukaryotic Cells” (Advanced Science, 2021).

Columns and labels:
[1] = Peptide titrations by SUVs followed by tryptophan fluorescence (solution-to-membrane partition); format: physicochemical; conditions: POPC:POPG 8:2 SUVs, buffer A pH 7.4, 25 °C, tryptophan fluorescence ratio 330/370 nm; S.D. within ± 10%
Experimental: Lipid vesicles preparation
Small unilamellar vesicles (SUVs) and large unilamellar vesicles (LUVs) were prepared with POPC and POPG at a molar ratio of 8:2, at a lipid concentration of 10 mM in buffer A, as previously described 1. Briefly, SUVs and LUVs were prepared by reverse phase evaporation and filtered through polycarbonate filters of 1 μm and 0.2 μm of pore size diameter to obtain L UV. SUVs were further sonicated. The hydrodynamic diameters and mean net charge of the vesicles were measured by dynamic light scattering (DLS) and electrophoretic mobility, respectively, using a ZetaSizer NanoZS (Malvern Pananalytical , Orsay, France) 11.
Peptide titrations bySUV s and CaM followed by tryptophan fluorescence
Titrations were carried out with a FP-8200 Jasco spectrofluorimeter, equipped with a Pelt ie r - thermostated ETC-272T at 25°C. A bandwidth of 5 nm was used for both excitation and […]
(Hellma, France) with constant stirring. Fluorescence emission was recorded between 300 and […]
400 nm at a scan rate of 100 nm/min, with an excitation wavelength of 280 nm. Fluorescence emission spectra were corrected for SUV or CaM baselines . Fluorescence intensity ratio at 330 nm over 370 nm was use d to measure the partition coefficient (K X) of peptides between the solution andmembrane s 1, 12 and the affinity (K d) of peptides for CaM 13.
Determination of partition coefficient KX and dissociation constant Kd from […]
The partition coefficient KX is defined as the ratio of protein in the lipid (PL) and in buffer […]
(PW) pha se s 12, 14, expressed by: KKXX = [LL ]? , giving[PPWW ] [PPWW ]= [WW], where [W] the […]
concentration of water (55.5 M) and [L] the lipid concentration.
The fraction of peptide partitioned into the membrane, fPL, is equal to:
ffPPLL = [PPLL ][PPTT ]= [PPLL ][PPLL ]+[PPWW ]= 11+([PPWW ])= 11+( [WW]), where PT is the total concentration of peptides [PP TT ]= [PP LL ]+ [PP WW ]. […]
The equations a re fitted to the experimental data using the KaleidaGraph software, providing the KX and K d value s. The partition coefficient is related to the apparent dissociation constant:
KKXX × KKdd = [WW ] and to the free energy of partition ΔG Kx = -RTln(K X), where ΔG is the free energy in kcal/mol, R the gas constant (R = 1.98 x 10-3 kcal/mol/K) and T the temperature i n Kelvin. The free energy of peptide CaM interaction, ∆G Kd, is given by ΔG Kd = RTln(K d).
Sedimentation velocity-Analytical ultracentrifugation (SV -AUC) […]
ratio 1:1 (at 70 µM each). Samples were incubated 2h at 20°C in the ultracentrifuge and, then span at 42,000 rpm in an An-50 Ti rotor. […]

[2] = Peptide translocation across droplet interface bilayers (DIB); format: in vitro ADME; conditions: TAMRA (dye)-labeled peptide in cis, 15 min; for Peptide in trans droplet, 5 µM holo-CaM in trans: POPC:POPG 9:1 bilayer, CaCl2 2 mM cis vs 0.2 mM trans, epifluorescence, four to seven independent trials
Experimental: weak fluorescence signal. […]
fluorescence signal. The samples were prepared at the following final concentrations: 10 µM […]
concentration of CDZ wa s 14.5 mM in 100% DMSO. Addition of CDZ at a final concentration of 40 µ M gives a final concentration of less than 0.3 % of DMSO in the […]
Peptide translocation followed by droplet interface bilayerexperiments
An aqueous phase is prepared with buffer D or E and the oil phase is prepared with 15 % (v/v) of chloroform and 0.08%(w/v) of lipids (POP C: POP G at a 9:1molar ratio) in squalene.
A population of droplets is obtained by adding 2 µL of the aqueous phase to 20 µL of the oil phase before briefly shaking the mixture to create an invert emulsion. Two droplet populations were prepared: one containing the TAMRA-labeled peptide in buffer D , the “source”, cis-droplets and the other one containing buffer D or E, or in the presence or in the absence of calmodulin, the “capture”, trans -droplets. […] The fluorescence signals of the “source” and the “capture” droplets were monitored by epifluorescence microscopy for 15 minutes with an Olympus microscope and a MicroMax camera (Princeton Instrument). […]
Quantification of the translocation process is possible thanks to the analysis of the fluorescence images of the droplet pairs. Even if fluorescence is not directly proportional to peptide concentration due to photo-bleaching and small volume variations, one can hypothesize that the fluorescence intensities of the “source” and the “capture” droplets are proportional to the ratio of their concentrations. Moreover, as the initial concentration in the “source” droplet is known and as the total amount of peptide is conserved during the experience, we can write that: CCss (tt = 0) × VVss = CCss (tt ) × VVss + CCcc (tt ) × VVcc , where Ci is the concentration of the droplet i, Vi its volume, which was determined from microscopy images (i=”s” for the source droplet and “c” for the capture droplet). […]
CCcc = CCss (tt = 0) × VVss where F i is the fluorescence intensity measured fordroplet i. […]
analyzed in buffer C. […]

| Compound | Partition coefficient KX [1] | Peptide in trans droplet, 5 µM holo-CaM in trans [2] | Peptide in trans droplet, 100 µM CaM in trans ([2]; calcium gradient 2 mM cis vs 0.2 mM trans, five to seven independent trials) |
| --- | --- | --- | --- |
| Ac-ASAHWGQEALQGAQAVAAAQELVHAIALMTQ-NH2 [P454 R12E] | 80 ×10^3 | do not accumulate | significant accumulation |
| CC[C@H](C)[C@H](NC(=O)[C@H](CCCCN)NC(=O)[C@H](Cc1c[nH]c2ccccc12)NC(=O)[C@H](CC(C)C)NC(=O)[C@H](CC(C)C)NC(=O)[C@H](CC(=O)O)NC(=O)[C@@H](NC(=O)[C@H](CCCNC(=N)N)NC(=O)[C@H](CCC(=O)O)NC(=O)[C@H](CCCNC(=N)N)NC(=O)[C@H](CC(=O)O)NC(=O)[C@H](CC(C)C)NC(C)=O)[C@@H](C)CC)C(=O)N[C@@H](C)C(=O)N[C@@H](CCCNC(=N)N)C(=O)N[C@@H](C)C(=O)NCC(=O)N[C@@H](C)C(=O)N[C@@H](CCCNC(=N)N)C(=O)N[C@@H](CO)C(=O)N[C@@H](C)C(=O)N[C@H](C(=O)NCC(N)=O)C(C)C [H-helix, reference compound] | – | do not accumulate | – |
